This note sets out measurements from paper PMC5945515, “Measuring glucocorticoid receptor expression in vivo with PET” (Oncotarget, 2018).

pKd: −log10 of the molar value.

Series [1] can be described thus: Log P determination (octanol:water). The class given is physicochemical. As to conditions: octanol:water 1:1 v/v. As for the experimental part: To a microcentrifuge tube containing 1 mL of octanol:water (1:1 v/v) was added 50 μL of ^18F-GR02 (total activity = 37 MBq). The solution was vortexed vigorously for 30 sec, and the biphasic layers were allowed to separate. The layers were manually pipetted into new microcentrifuge tubes, and the activity of each fraction was read with a dose calibrator. The water fraction contained 1.7 MBq, and the octanol fraction contained 35.3 MBq.

The target of a further series is T1, mouse GR (Mus musculus, UniProt P06537).
T1 construct: endogenous in cells; host or cells: GL261
T1 sequence (P06537 1-792): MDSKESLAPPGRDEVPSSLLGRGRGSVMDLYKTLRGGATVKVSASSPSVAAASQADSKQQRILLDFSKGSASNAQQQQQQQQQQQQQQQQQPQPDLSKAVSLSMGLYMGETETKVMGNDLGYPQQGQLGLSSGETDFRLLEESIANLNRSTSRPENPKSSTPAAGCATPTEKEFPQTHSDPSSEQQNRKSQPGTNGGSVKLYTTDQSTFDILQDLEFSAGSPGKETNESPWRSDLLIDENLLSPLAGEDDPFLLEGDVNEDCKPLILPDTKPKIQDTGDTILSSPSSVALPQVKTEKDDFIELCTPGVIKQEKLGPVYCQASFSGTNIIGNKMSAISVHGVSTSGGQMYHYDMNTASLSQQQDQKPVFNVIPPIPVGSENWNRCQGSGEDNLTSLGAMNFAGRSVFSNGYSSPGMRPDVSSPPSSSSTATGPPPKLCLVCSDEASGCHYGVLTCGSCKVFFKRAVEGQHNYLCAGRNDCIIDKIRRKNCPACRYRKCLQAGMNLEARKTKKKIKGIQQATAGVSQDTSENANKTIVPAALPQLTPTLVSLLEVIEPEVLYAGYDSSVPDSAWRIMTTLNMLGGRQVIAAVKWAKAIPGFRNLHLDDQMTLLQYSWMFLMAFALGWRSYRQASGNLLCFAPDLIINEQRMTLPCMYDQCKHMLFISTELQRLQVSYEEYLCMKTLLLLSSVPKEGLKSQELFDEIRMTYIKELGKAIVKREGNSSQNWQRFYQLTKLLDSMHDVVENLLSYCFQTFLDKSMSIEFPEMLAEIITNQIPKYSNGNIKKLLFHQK
Nature of the series: Competition binding assay on cells, mouse GR. As to conditions: GL261 cells, displacing 3H-dexamethasone; read-out: KD msGR. As for the experimental part: The KD for subfamily 3 group C nuclear hormone receptors was determined on cells by displacing ^3H-steroidal agonists for the respective receptor. […].
The cold ligands and ^3H-steroids were co-incubated on cells in PBS at room temperature for one hour. Following incubation, the cells were washed twice with ice cold PBS and the unbound activity was retained for analysis. The cells were lysed with 1 mL of 1 M NaOH and collected. Bound and unbound fractions were counted in a liquid scintillation counter and expressed as a percentage of the total activity added per equal relative number of cells. […]. The specific binding component was plotted against the log of the competing ligand and curve fit using a non-linear regression algorithm with PRISM software.

In series [1], `C[C@]12C=CC(=O)C=C1CCC1C2[C@@H](O)C[C@@]2(C)C1CC[C@]2(O)C(=O)CNC(=O)c1ccc(F)cc1` (some centres unmarked) [GR02] came in with a logP of 1.33. The pKd at mouse GR is 8.17.

What is called logP is a log measure of how a compound divides between an organic and an aqueous phase. A high value points to higher lipophilicity. A word on the pKd: it is −log10 of the Kd, conventionally taken in molar units.
